Data set [1] deals with HCC827. Nature of the data set: Antiproliferative activity against human NCI-HCC827 cells expressing EGFR del19 incubated for 72 hrs by CCK-8 assay. The data set is classed as functional, cell-based. Conditions: HCC827, 72 h.
Data set [2] in a line: Selectivity ratio IC50 for human NCI-H1299 cells expressing wild type EGFR to human NCI-H1975 cells expressing EGFR L858R/T790M. In kind it is functional.
In data set [3] the test system is NCI-H1975. The data set is described as follows: Antiproliferative activity against human NCI-H1975 cells expressing EGFR L858R/T790M incubated for 72 hrs by CCK-8 assay. The data set is classed as functional, cell-based. Conditions: NCI-H1975, 72 h. Background: Tetrazolium dyes change colour on reduction, which living cells bring about.
For data set [4], the system named is A549. Nature of the data set: Antiproliferative activity against human A549 cells expressing wild type EGFR incubated for 72 hrs by CCK-8 assay. The data set is classed as functional, cell-based. Conditions: A549, 72 h.
Data set [5] concerns NCI-H1299. Nature of the data set: Antiproliferative activity against human NCI-H1299 cells expressing wild type EGFR incubated for 72 hrs by CCK-8 assay. In kind it is functional, cell-based. Conditions: NCI-H1299, 72 h.
Data set [6] deals with NCI-H1299. Nature of the data set: Induction of apoptosis in human NCI-H1299 cells assessed as late apoptotic cells at 0.1 uM incubated for 48 hrs by AnnexinV-FITC/propidium iodide staining based flow cytometry analysis (reference value: 1.53 % ). In kind it is functional. (A flow cytometer gives signals particle by particle.)
Data set [7] deals with NCI-H1299. The data set is described as follows: Induction of apoptosis in human NCI-H1299 cells assessed as late apoptotic cells at 1.0 uM incubated for 48 hrs by AnnexinV-FITC/propidium iodide staining based flow cytometry analysis (reference value: 1.53 % ). In kind it is functional.
Data set [8] has as its system NCI-H1975. Nature of the data set: Induction of apoptosis in human NCI-H1975 cells assessed as viable cells at 1.0 uM incubated for 48 hrs by AnnexinV-FITC/propidium iodide staining based flow cytometry analysis (reference value: 96.2 % ). Conditions: read-out: Activity. In kind it is functional.
The subject of data set [9] is NCI-H1975. Nature of the data set: Induction of apoptosis in human NCI-H1975 cells assessed as late apoptotic cells at 0.1 uM incubated for 48 hrs by AnnexinV-FITC/propidium iodide staining based flow cytometry analysis (reference value: 1.35 % ). In kind it is functional.
Data set [10] concerns NCI-H1975. The data set is described as follows: Induction of apoptosis in human NCI-H1975 cells assessed as necrotic cells at 1.0 uM incubated for 48 hrs by AnnexinV-FITC/propidium iodide staining based flow cytometry analysis (reference value: 3.28 % ). The data set is classed as functional.
For data set [11], the system named is NCI-H1299. Nature of the data set: Induction of apoptosis in human NCI-H1299 cells assessed as necrotic cells at 1.0 uM incubated for 48 hrs by AnnexinV-FITC/propidium iodide staining based flow cytometry analysis (reference value: 0.24 % ). In kind it is functional.
The subject of data set [12] is NCI-H1299. The data set is described as follows: Induction of apoptosis in human NCI-H1299 cells assessed as necrotic cells at 0.1 uM incubated for 48 hrs by AnnexinV-FITC/propidium iodide staining based flow cytometry analysis (reference value: 0.24 % ). In kind it is functional.
The subject of data set [13] is NCI-H1975. Nature of the data set: Induction of apoptosis in human NCI-H1975 cells assessed as early apoptotic cells at 0.1 uM incubated for 48 hrs by AnnexinV-FITC/propidium iodide staining based flow cytometry analysis (reference value: 0.11 % ). In kind it is functional.
The subject of data set [14] is NCI-H1299. Nature of the data set: Induction of apoptosis in human NCI-H1299 cells assessed as viable cells at 0.1 uM incubated for 48 hrs by AnnexinV-FITC/propidium iodide staining based flow cytometry analysis (reference value: 98.05 % ). The data set is classed as functional. Conditions: read-out: Activity.
The test system of data set [15] is NCI-H1975. The data set is described as follows: Induction of apoptosis in human NCI-H1975 cells assessed as early apoptotic cells at 1.0 uM incubated for 48 hrs by AnnexinV-FITC/propidium iodide staining based flow cytometry analysis (reference value: 0.11 % ). In kind it is functional.
Data set [16] deals with NCI-H1299. The data set is described as follows: Induction of apoptosis in human NCI-H1299 cells assessed as early apoptotic cells at 0.1 uM incubated for 48 hrs by AnnexinV-FITC/propidium iodide staining based flow cytometry analysis (reference value: 0.11 % ). The data set is classed as functional.
Data set [17] deals with NCI-H1299. The data set is described as follows: Induction of apoptosis in human NCI-H1299 cells assessed as early apoptotic cells at 1.0 uM incubated for 48 hrs by AnnexinV-FITC/propidium iodide staining based flow cytometry analysis (reference value: 0.11 % ). In kind it is functional.
The test system of data set [18] is NCI-H1975. Nature of the data set: Induction of apoptosis in human NCI-H1975 cells assessed as viable cells at 0.1 uM incubated for 48 hrs by AnnexinV-FITC/propidium iodide staining based flow cytometry analysis (reference value: 96.2 % ). In kind it is functional. Conditions: read-out: Activity.
In data set [19] the test system is NCI-H1975. Nature of the data set: Induction of apoptosis in human NCI-H1975 cells assessed as late apoptotic cells at 1.0 uM incubated for 48 hrs by AnnexinV-FITC/propidium iodide staining based flow cytometry analysis (reference value: 1.35 % ). In kind it is functional.
In data set [20] the test system is NCI-H1975. Nature of the data set: Induction of apoptosis in human NCI-H1975 cells assessed as necrotic cells at 0.1 uM incubated for 48 hrs by AnnexinV-FITC/propidium iodide staining based flow cytometry analysis (reference value: 3.28 % ). In kind it is functional.
A short description of data set [21]: Plasma protein binding in rat assessed as unbound fraction at 1 uM incubated for 4 hrs by rapid equilibrium dialysis method. In kind it is ADME, cell-free. Conditions: read-out: PPB (converted). A general note: In equilibrium dialysis only unbound substance equilibrates across the membrane.
The subject of data set [22] is NCI-H1299. The data set is described as follows: Induction of apoptosis in human NCI-H1299 cells assessed as viable cells at 1.0 uM incubated for 48 hrs by AnnexinV-FITC/propidium iodide staining based flow cytometry analysis (reference value: 98.05 % ). The data set is classed as functional. Conditions: read-out: Activity.
Data set [23] addresses von Hippel-Lindau disease tumor suppressor/Epidermal growth factor receptor (Homo sapiens, UniProt P00533+P40337, L858R/T790M). The data set is described as follows: Protac activity at VHL/EGFR L858R/T790M mutant in human NCI-H1975 cells assessed as induction of degradation of EGFR incubated for 24 hrs in presence of afatinib by immunoblot analysis. In kind it is cell-based.

Data set [24] relates to BaF3. Nature of the data set: Antiproliferative activity against mouse BaF3 harbouring EGFR L858R/T790M/L718Q mutant assessed as inhibition of cell growth incubated for 72 hrs by MTS assay. Conditions: BaF3, 72 h. In kind it is functional, cell-based.
For data set [25], the system named is BaF3. The data set is described as follows: Antiproliferative activity against mouse BaF3 harbouring EGFR L858R/T790M mutant assessed as inhibition of cell growth incubated for 72 hrs by MTS assay. The data set is classed as functional, cell-based. Conditions: BaF3, 72 h.
For data set [26], the system named is BaF3. The data set is described as follows: Antiproliferative activity against mouse BaF3 harbouring EGFR L858R/T790M/C797S mutant assessed as inhibition of cell growth incubated for 72 hrs by MTS assay. Conditions: BaF3, 72 h. In kind it is functional, cell-based.

Here are results for 9 compounds from ChEMBL document CHEMBL5113438, “Discovery of highly potent and selective CRBN-recruiting EGFRL858R/T790M degraders in vivo” (Eur J Med Chem, 2022).

Chain of von Hippel-Lindau disease tumor suppressor/Epidermal growth factor receptor (P00533 25-1210 T790M/L858R limits assumed, stated change not applied): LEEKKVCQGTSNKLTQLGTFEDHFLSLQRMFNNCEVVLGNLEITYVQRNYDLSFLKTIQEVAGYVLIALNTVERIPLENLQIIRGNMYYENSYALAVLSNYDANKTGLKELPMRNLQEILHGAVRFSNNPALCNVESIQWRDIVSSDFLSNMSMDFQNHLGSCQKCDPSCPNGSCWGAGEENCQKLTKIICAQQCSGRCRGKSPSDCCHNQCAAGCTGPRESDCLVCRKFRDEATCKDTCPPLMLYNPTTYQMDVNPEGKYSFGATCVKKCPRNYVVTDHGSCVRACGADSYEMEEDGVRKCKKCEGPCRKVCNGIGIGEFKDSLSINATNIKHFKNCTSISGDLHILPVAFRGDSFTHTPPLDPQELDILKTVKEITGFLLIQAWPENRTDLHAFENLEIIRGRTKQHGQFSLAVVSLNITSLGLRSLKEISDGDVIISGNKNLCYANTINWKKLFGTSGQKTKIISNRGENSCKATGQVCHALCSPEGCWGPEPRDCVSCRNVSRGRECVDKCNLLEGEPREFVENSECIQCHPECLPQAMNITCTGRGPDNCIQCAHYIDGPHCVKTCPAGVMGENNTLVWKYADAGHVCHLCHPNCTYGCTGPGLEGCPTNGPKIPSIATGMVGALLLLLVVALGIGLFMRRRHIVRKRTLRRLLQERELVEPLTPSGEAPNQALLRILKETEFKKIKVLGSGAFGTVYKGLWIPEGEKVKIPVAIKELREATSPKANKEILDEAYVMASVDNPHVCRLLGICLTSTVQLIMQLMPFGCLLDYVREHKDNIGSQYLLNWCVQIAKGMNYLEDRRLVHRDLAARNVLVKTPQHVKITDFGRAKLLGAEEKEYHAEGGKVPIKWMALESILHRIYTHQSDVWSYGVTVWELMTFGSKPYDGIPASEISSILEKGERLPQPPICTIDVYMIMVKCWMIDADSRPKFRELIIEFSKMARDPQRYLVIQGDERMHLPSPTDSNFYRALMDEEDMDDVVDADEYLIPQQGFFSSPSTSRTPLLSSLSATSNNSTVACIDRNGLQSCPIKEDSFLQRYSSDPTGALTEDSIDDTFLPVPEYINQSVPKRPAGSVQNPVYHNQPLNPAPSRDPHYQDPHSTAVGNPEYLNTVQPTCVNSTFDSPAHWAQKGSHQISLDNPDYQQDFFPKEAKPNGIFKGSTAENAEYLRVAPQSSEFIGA
Chain of von Hippel-Lindau disease tumor suppressor/Epidermal growth factor receptor (P40337 whole entry, stated change not applied): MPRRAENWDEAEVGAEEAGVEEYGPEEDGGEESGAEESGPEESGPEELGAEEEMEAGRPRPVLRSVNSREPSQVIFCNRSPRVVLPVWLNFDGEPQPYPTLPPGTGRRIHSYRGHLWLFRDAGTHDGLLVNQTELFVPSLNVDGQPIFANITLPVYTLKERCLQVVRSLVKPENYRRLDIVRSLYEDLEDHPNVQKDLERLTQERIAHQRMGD

In general, IC50 refers to the concentration needed to halve the response being measured. As to `C#CCN(CCCCCCC(=O)Nc1cccc2c1CN(C1CCC(=O)NC1=O)C2=O)CCN(C)c1cc(OC)c(Nc2nccc(-c3cn(C)c4ccccc34)n2)cc1NC(=O)C=C` (stereo unspecified), the IC50 is 358 nM in data set [1], 1110 nM in data set [3], above 100000 nM in data set [4] and above 100000 nM in [5]. The “Ratio IC50” value in [2] came to 90.
On to `C#CCN(CCCCCCCCCC(=O)Nc1cccc2c1CN(C1CCC(=O)NC1=O)C2=O)CCN(C)c1cc(OC)c(Nc2nccc(-c3cn(C)c4ccccc34)n2)cc1NC(=O)C=C` (stereo unspecified), for which the IC50 in data set [1] is 2650 nM; in [3] it was 6800 nM; in [4] it was above 100000 nM; in data set [5], above 100000 nM. Also, in data set [2], the “Ratio IC50” value is 14.
With `C=CC(=O)Nc1cc(Nc2nccc(-c3cn(C)c4ccccc34)n2)c(OC)cc1N(C)CCN(C)C` [OSIMERTINIB], the Activity in data set [6] is […]; in [7] it was 2.14%; in data set [9], 3.83%; in [10] it was 7.27%; in data set [11], 0.5%; in data set [12] it was 0.34%. For the same compound, the Activity in [13] was […]; in [15], 1.7%; in data set [16], 0.08%; in [17] it was 0.075%; in data set [19], 34.7%; in data set [20] it was 6.89%. Moreover, the viability at 1 µM in data set [8] is 56.4%; in data set [22], 97.3%. Besides, the IC50 is 2.48 nM in data set [1], […] in [3], 445 nM in data set [4] and 3240 nM in data set [5]. In [2], the “Ratio IC50” value is on record as […]. Besides, the viability at 0.1 µM in [14] came out at 98.2%; in [18], 90.1%. For the same compound, in data set [21], the fraction unbound at 4 h, 1 µM is 0.0133.
Regarding `C#CCN(CCCCCCCC(=O)Nc1cccc2c1CN(C1CCC(=O)NC1=O)C2=O)CCN(C)c1cc(OC)c(Nc2nccc(-c3cn(C)c4ccccc34)n2)cc1NC(=O)C=C` (stereo unspecified), the IC50 in [1] is 457 nM; in data set [3], 1360 nM; in data set [4], above 100000 nM; in [5] it was above 100000 nM. Besides, in data set [2], the “Ratio IC50” value amounted to 74.
Usually EC50 stands for the concentration giving half of the maximal effect. For the compound `Cc1ccsc1-c1ccc(CNC(=O)[C@@H]2C[C@@H](O)CN2C(=O)[C@@H](NC(=O)CCCCCOCCCCOCCCCOc2cc3ncnc(Nc4ccc(F)c(Cl)c4)c3cc2NC(=O)/C=C/CN(C)C)C(C)(C)C)cc1`, in data set [23], the EC50 worked out at 216 nM.
For `C#CCN(CCCCC(=O)Nc1cccc2c1CN(C1CCC(=O)NC1=O)C2=O)CCN(C)c1cc(OC)c(Nc2nccc(-c3cn(C)c4ccccc34)n2)cc1NC(=O)C=C` (stereo unspecified), the IC50 in data set [1] was 309 nM; in data set [3], 1020 nM; in data set [4] it was above 100000 nM; in data set [5], above 100000 nM. In addition, in data set [2], the “Ratio IC50” value was 98.
For `C#CCN(CCCCCCCCC(=O)Nc1cccc2c1CN(C1CCC(=O)NC1=O)C2=O)CCN(C)c1cc(OC)c(Nc2nccc(-c3cn(C)c4ccccc34)n2)cc1NC(=O)C=C` (stereo unspecified), the IC50 in data set [1] is 1160 nM; in data set [3] it was 3230 nM; in data set [4] it was above 100000 nM; in data set [5], above 100000 nM. The “Ratio IC50” value in data set [2] is on record as 31.
`O=C1CCC(N2C(=O)c3cccc(NCCOCCOCCOCCN4CCN(c5ccc(-c6ccc7c(c6)C(=O)N(C(C(=O)Nc6nccs6)c6ccccc6)C7)cn5)CC4)c3C2=O)C(=O)N1` (stereo unspecified): the IC50 in data set [24] stood at 28 nM; in data set [25], 50 nM; in data set [26] it was 41 nM.
As for `C#CCN(CCCCCC(=O)Nc1cccc2c1CN(C1CCC(=O)NC1=O)C2=O)CCN(C)c1cc(OC)c(Nc2nccc(-c3cn(C)c4ccccc34)n2)cc1NC(=O)C=C` (stereo unspecified), the IC50 was 649 nM in data set [1], 3560 nM in data set [3], above 100000 nM in data set [4] and above 100000 nM in data set [5]. Moreover, in data set [2], the “Ratio IC50” value is recorded as 28.
